Holding throughout (format): functional
For assay [1], the system named is Mus musculus. Nature of the assay: Inhibition of DMBA-induced/TPA-promoted carcinogenesis in mouse assessed as number of skin papillomas per mouse at 85 nmol administered twice weekly after 1 week of initiation measured after 20 weeks by two stage carcinogenesis test. The arrangement: scale not given: the % may be the effect or the level left.
The species entered for assay [2] is Mus musculus. Nature of the assay: Inhibition of 4NQO-induced carcinogenesis in mouse assessed as reduction of mouse with tumor at 1.25 mg after 25 weeks by two stage carcinogenesis test. The arrangement: scale not given: the % may be the effect or the level left.
The species entered for assay [3] is Mus musculus. Nature of the assay: Inhibition of 4NQO-induced carcinogenesis in mouse assessed as total number of tumors at 1.25 mg after 25 weeks by two stage carcinogenesis test.
For assay [4], the species on record is Mus musculus. Nature of the assay: Inhibition of 4NQO-induced carcinogenesis in mouse assessed as number of tumors per mouse at 1.25 mg after 25 weeks by two stage carcinogenesis test.

On to `COc1ccc(-c2coc3cc(O)c(OC)cc3c2=O)cc1` [CASTANIN], for which the Activity with Mus musculus [1] was found to be 40%; in the assay filed under Mus musculus [2], 60%; in the assay listed under Mus musculus [3], 14; in the assay listed under Mus musculus [4], 0.93.

Consider `C[C@@H]1O[C@@H](O[C@H]2[C@H](O[C@H]3[C@H](O[C@H]4CC[C@@]5(C)[C@@H](CC[C@]6(C)[C@@H]5CC=C5[C@@H]7CC(C)(C)C[C@@H](O)[C@]7(C)CC[C@]56C)[C@@]4(C)CO)O[C@H](C(=O)O)[C@@H](O)[C@@H]3O)O[C@H](CO)[C@H](O)[C@@H]2O)[C@H](O)[C@H](O)[C@H]1O` [SOYASAPONIN I], for which the Activity in the assay with Mus musculus [1] is reported as 40%.

These data come from ChEMBL document CHEMBL1150067, “Anti-tumor-promoting activities of afromosin and soyasaponin I isolated from Wistaria brachybotrys” (1992).
